Key:
pERK in DLD1 cells = assay: ERK phosphorylation assay after EGF stimulation; format: cell-based; details: Homo sapiens, DLD-1, compound 2 h, 200 ng/ml hEGF 5 minutes, alphascreen pERK, read-out: ERK phosphorylation inhibition IC50
Procedure: Example-128: ERK Phosphorylation Assay Protocol
Compounds were tested for their ability to inhibit pERK after EGF stimulation in DLD1 cells. Cells were seeded at 0.2 million cells per well in 96 well cell binding tissue culture plate in 100 μL complete media and were allowed to settle overnight (16 to 20 h). On the following day, cells were treated with various concentrations of test compounds for 2 h followed by stimulation with 200 ng/ml hEGF (diluted in PBS) for 5 minutes. Cells were then washed once with PBS and lysed in freshly prepared lysis buffer (provided with alphascreen surefire ERK1/2 p-T202/Y204 assay kit, cat no: TGRESB10K, Perkin Elmer). Lysis was carried out in plate shaker for 10-15 mins. Lysate was transferred to […] white opti-plate (Perkin Elmer) and alphascreen for pERK was carried out as per manufacturer's instructions. Plate was read after 2 h incubation in plate shaker at […] 300 RPM, 25-28° C.

hSOS1 and hKRASG12C = target: T1, hSOS1 and hKRASG12C (Homo sapiens, UniProt Q07889); assay: biochemical
T1 sequence (Q07889 564-1049): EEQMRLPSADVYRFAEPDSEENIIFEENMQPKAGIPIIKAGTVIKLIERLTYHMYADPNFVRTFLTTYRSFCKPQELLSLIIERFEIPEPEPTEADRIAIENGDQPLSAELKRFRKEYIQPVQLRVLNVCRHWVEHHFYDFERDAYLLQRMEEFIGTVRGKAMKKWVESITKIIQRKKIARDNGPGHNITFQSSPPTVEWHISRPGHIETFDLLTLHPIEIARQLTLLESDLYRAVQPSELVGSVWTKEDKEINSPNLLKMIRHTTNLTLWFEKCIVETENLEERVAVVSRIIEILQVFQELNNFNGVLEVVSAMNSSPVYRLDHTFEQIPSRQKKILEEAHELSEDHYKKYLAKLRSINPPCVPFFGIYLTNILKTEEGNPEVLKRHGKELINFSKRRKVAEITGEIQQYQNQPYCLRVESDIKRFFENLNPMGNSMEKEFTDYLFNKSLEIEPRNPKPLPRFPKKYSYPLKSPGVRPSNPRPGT
Procedure: Interaction assay was conducted to evaluate the ability of the compounds to disrupt the protein-protein interactions between hSOS1 and hKRASG12C. Inhibitory effect of compounds on GST-hSOS1, 564-1049aa expressed and purified in-house and HIS-hKRASG12C (R06-32DH, SignalChem) interaction was assessed using HTRF detection technology in biochemical assay. Compounds were pre-incubated with 10-50 nM working solution of hSOS1 per well of a 384 well plate (Perkin Elmer, Cat #6007290) for 10 min at 20° C. in the assay buffer containing 5 mM HEPES, pH 7.4, 150 mM NaCl, 10 mM EDTA, 1 mM DTT, 0.05% BSA fraction V and 0.0025% Igepal. Reaction was initiated by adding 100-300 nM working solution of hKRASG12C in assay buffer. Total assay volume was 15 μL. Reaction was continued for 30-60 min at 20° C. Then detection solution containing MAb Anti-GST-d2 (#61GSTDLA, Cisbio BioAssays) and MAb Anti-HIS-Tb (#61HISTLA, Cisbio BioAssays), all prepared in HTRF detection buffer (#61DB10RDF, Cisbio BioAssays) was added and further incubated for 30-60 min at 20° C. HTRF signal was recorded in PHERAStar microplate reader. Ratio of signal obtained at 665 nm and 620 nm was used to compute the percent inhibition of compound utilizing the following formula:
Positive control=hSOS1+hKRASG12C+MAb Anti-GST-d2+Mab Anti-HIS-Tb Negative control=hKRASG12C+MAb Anti-GST-d2+MAb Anti-HIS-Tb

Cc1cc(N)cc(C(C)Nc2nc(C)nc3c4c(c(N5CC6(COC6)C5)cc23)CCC4)c1 (single isomer, unassigned) [Compound 20, N-(1-(3-amino-5-methylphenyl)ethyl)-2-methyl-6-(2-oxa-6-azaspiro[3.3]heptan-6-yl)-8,9-dihydro-7H-cyclopenta[h]quinazolin-4-amine]
IC50 (pERK in DLD1 cells): 201 to 500 nM
IC50 (hSOS1 and hKRASG12C): 1 to 10 nM

Cc1nc(NC(C)c2cc(N)cc(C(F)F)c2)c2cc(N3CCOCC3)c3c(c2n1)CCC3 (single isomer, unassigned) [Compound 77, (R/S)—N-(1-(3-amino-5-(difluoromethyl)phenyl)ethyl)-2-methyl-6-morpholino-8,9-dihydro-7H-cyclopenta[h]quinazolin-4-amine]
IC50 (pERK in DLD1 cells): 1 to 200 nM
IC50 (hSOS1 and hKRASG12C): 1 to 10 nM

Cc1nc(N[C@H](C)c2cc(N)cc(C(F)(F)F)c2)c2cc(N3CCOCC3)c3c(c2n1)CC(C)O3 (single isomer, unassigned) [Compound 117b]
IC50 (pERK in DLD1 cells): 1 to 200 nM
IC50 (hSOS1 and hKRASG12C): 11 to 20 nM

COC1CCN(c2cc3c(N[C@H](C)c4cc(N)cc(C(F)(F)F)c4)nc(C)nc3c3c2CCC3)CC1 [Compound 1, (R)—N-(1-(3-amino-5-(trifluoromethyl)phenyl)ethyl)-6-(4-methoxypiperidin-1-yl)-2-methyl-8,9-dihydro-7H-cyclopenta[h]quinazolin-4-amine]
IC50 (pERK in DLD1 cells): 1 to 200 nM
IC50 (hSOS1 and hKRASG12C): 11 to 20 nM

Cc1nc(N[C@H](C)c2cc(N)cc(C(F)(F)F)c2)c2cc(N3C[C@@H](C)O[C@@H](C)C3)c3c(c2n1)CCC3 [Compound 17, N—((R)-1-(3-amino-5-(trifluoromethyl)phenyl)ethyl)-6-((2S,6R)-2,6-dimethylmorpholino)-2-methyl-8,9-dihydro-7H-cyclopenta[h]quinazolin-4-amine]
IC50 (hSOS1 and hKRASG12C): 11 to 20 nM

Cc1nc(N[C@H](C)c2cc(N)cc(C(F)(F)F)c2)c2cc(N[C@H]3CCOC3)c3c(c2n1)CCC3 [Compound 19, N^4—((R)-1-(3-amino-5-(trifluoromethyl)phenyl)ethyl)-2-methyl-N^6—((S)-tetrahydrofuran-3-yl)-8,9-dihydro-7H-cyclopenta[h]quinazoline-4,6-diamine]
IC50 (pERK in DLD1 cells): 1 to 200 nM
IC50 (hSOS1 and hKRASG12C): 1 to 10 nM

Cc1nc(N[C@H](C)c2cc(N)cc(C(F)(F)F)c2)c2cc(NC3CCOCC3)c3c(c2n1)CCC3 [Compound 21, (R)—N^4-(1-(3-amino-5-(trifluoromethyl)phenyl)ethyl)-2-methyl-N^6-(tetrahydro-2H-pyran-4-yl)-8,9-dihydro-7H-cyclopenta[h]quinazoline-4,6-diamine]
IC50 (pERK in DLD1 cells): 201 to 500 nM
IC50 (hSOS1 and hKRASG12C): 11 to 20 nM

COC[C@H]1CN(c2cc3c(N[C@H](C)c4cc(N)cc(C(F)(F)F)c4)nc(C)nc3c3c2CCC3)CCO1 [Compound 27, N—((R)-1-(3-amino-5-(trifluoromethyl)phenyl)ethyl)-6-((R)-2-(methoxymethyl)morpholino)-2-methyl-8,9-dihydro-7H-cyclopenta[h]quinazolin-4-amine]
IC50 (pERK in DLD1 cells): 1 to 200 nM
IC50 (hSOS1 and hKRASG12C): 1 to 10 nM

Cc1nc(N[C@H](C)c2cc(N)cc(C(F)(F)F)c2)c2cc(N3CC[C@@H](O)C3)c3c(c2n1)CCC3 [Compound 44, (R)-1-(4-(((R)-1-(3-amino-5-(trifluoromethyl)phenyl)ethyl)amino)-2-methyl-8,9-dihydro-7H-cyclopenta[h]quinazolin-6-yl)pyrrolidin-3-ol]
IC50 (pERK in DLD1 cells): 1 to 200 nM
IC50 (hSOS1 and hKRASG12C): 11 to 20 nM

Cc1nc(N[C@H](C)c2cc(N)cc(C(F)(F)F)c2)c2cc(N3CCN(C)CC3)c3c(c2n1)CCC3 [Compound 46, (R)—N-(1-(3-amino-5-(trifluoromethyl)phenyl)ethyl)-2-methyl-6-(4-methylpiperazin-1-yl)-8,9-dihydro-7H-cyclopenta[h]quinazolin-4-amine]
IC50 (hSOS1 and hKRASG12C): 1 to 10 nM

COc1cc2c(N[C@H](C)c3cc(N)cc(C(F)(F)F)c3)nc(C)nc2c2c1CCC2 [Compound 108, (R)—N-(1-(3-amino-5-(trifluoromethyl)phenyl)ethyl)-6-methoxy-2-methyl-8,9-dihydro-7H-cyclopenta[h]quinazolin-4-amine]
IC50 (hSOS1 and hKRASG12C): 1 to 10 nM

— patent US12435066B2, “Substituted tricyclic compounds” (LUPIN LIMITED, priority 2019, dated 2025)
